Results reported in patent publication US20240018120A1, “MAGL INHIBITORS” (H. LUNDBECK A/S, priority 2020, published 2024).

What was measured:
MAGL [1] = target: T1, MAGL (Homo sapiens, UniProt Q99685); experiment: In vitro competitive substrate hydrolysis enzyme activity assay (pNPA), HEK293 cell lysates; type: biochemical; design: expressed in transfected cells; host or cells: HEK293; details: HEK293 lysate
T1 sequence (Q99685 1-303): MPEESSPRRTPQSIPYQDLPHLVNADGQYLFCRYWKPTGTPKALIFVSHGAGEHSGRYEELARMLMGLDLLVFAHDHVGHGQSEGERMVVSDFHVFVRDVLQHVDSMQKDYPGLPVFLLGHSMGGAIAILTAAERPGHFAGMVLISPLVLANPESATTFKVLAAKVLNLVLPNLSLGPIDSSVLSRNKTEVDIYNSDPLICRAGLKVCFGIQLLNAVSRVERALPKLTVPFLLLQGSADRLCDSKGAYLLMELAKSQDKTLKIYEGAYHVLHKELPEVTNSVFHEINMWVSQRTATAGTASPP
Procedure: HEK293 cell lysates expressing recombinant human MAGL enzyme and 4-nitrophenyl acetate (pNPA) substrate were diluted separately in 50 mM HEPES (pH 7.0) containing 200 mM KCl and 1 mM EDTA. Lysates (50 μL, ˜1.2 μg total protein) were preincubated with varying concentrations of inhibitors at 25° C. After 30 min, 2×pNPA substrate (50 μL, 2.5 mM) was added and the rate of substrate turnover was monitored by measuring the increase in absorbance at wavelength 405 nm for 20 minutes at 25° C. using a Biotek Neo2 plate reader. The mean velocity was converted to percent enzyme activity following background subtraction and normalization to DMSO controls. IC50 values were determined by fitting percent enzyme activities to a non-linear regression, 4-parameter, sigmoidal dose response function in Prism GraphPad.

MAGL [2] = target: T1, MAGL; experiment: In vitro competitive activity-based protein profiling, PC3 human cell membrane proteomes; type: biochemical; design: endogenous in cells; host or cells: PC3 human cells (membrane proteome); details: human PC3 membrane proteome; for inhibition at 1 µM: read-out: MAGL % inh. 1 μM (human PC3)
Procedure: PC3 human cell membrane proteomes (50 μL, 2.0 mg/mL total protein concentration) were preincubated with varying concentrations of inhibitors at 37° C. After 30 min, the ABPP probe JW912-Bodipy (1.0 μL, 50 μM in DMSO) was added and the mixture was incubated for 30 min at room temperature. Reactions were quenched with SDS loading buffer (15 μL-4×) and run on SDS-PAGE. Following gel imaging, serine hydrolase activity was determined by measuring fluorescent intensity of gel bands corresponding to MAGL using ImageJ 1.43u software. Intensities were converted to percent enzyme activity by normalizing to DMSO controls. IC50 values were determined by fitting percent enzyme activities to a non-linear regression, 4-parameter, sigmoidal dose response function in Prism GraphPad.

| Structure (SMILES) | IC50 (MAGL [1]) [µM] | inhibition at 1 µM (MAGL [2]) [%] | IC50 (MAGL [2]) [µM] |
| --- | --- | --- | --- |
| O=C(OC(C(F)(F)F)C(F)(F)F)N1CCC2(CC1)CC2C(=O)N1CCn2ccnc2C1 (racemic) [Example 186, 1,1,1,3,3,3-hexafluoropropan-2-yl (+)1-(5,6,7,8-tetrahydroimidazo[1,2-a]pyrazine-7-carbonyl)-6-azaspiro[2.5]octane-6-carboxylate] | 0.168 | 100 |  |
| O=C(OC(C(F)(F)F)C(F)(F)F)N1CCC2(CC1)CC2C(=O)N1CCc2cncnc2C1 (racemic) [Example 187, 1,1,1,3,3,3-hexafluoropropan-2-yl (+)1-(5,6,7,8-tetrahydropyrido[3,4-d]pyrimidine-7-carbonyl)-6-azaspiro[2.5]octane-6-carboxylate] | 0.143 | 100 | 0.11 |
| O=C(Nc1cccnc1)[C@@H]1CC12CCN(C(=O)OC(C(F)(F)F)C(F)(F)F)CC2 (single isomer, unassigned) [Example 3] | 0.435 | 100 | 0.127 |
| CN(C(=O)[C@@H]1CC12CCN(C(=O)OC(C(F)(F)F)C(F)(F)F)CC2)c1cnccn1 (single isomer, unassigned) [Example 11] | 0.0993 | 100 | 0.032 |
| O=C(Nc1cncc(F)c1)C1CC12CCN(C(=O)OC(C(F)(F)F)C(F)(F)F)CC2 (single isomer, unassigned) [Example 39, 1,1,1,3,3,3-hexafluoropropan-2-yl (R or S)-1-((5-fluoropyridin-3-yl)carbamoyl)-6-azaspiro[2.5]octane-6-carboxylate] | 0.319 | 90 | 0.29 |
| O=C(OC(C(F)(F)F)C(F)(F)F)N1CCC2(CC1)CC2C(=O)N1CCn2cc(C(F)(F)F)nc2C1 (single isomer, unassigned) [Example 52, 1,1,1,3,3,3-hexafluoropropan-2-yl (R or S)-1-(2-(trifluoromethyl)-5,6,7,8-tetrahydroimidazo[1,2-a]pyrazine-7-carbonyl)-6-azaspiro[2.5]octane-6-carboxylate] | 0.155 |  |  |
| O=C(OC(C(F)(F)F)C(F)(F)F)N1CCC2(CC1)CC2C(=O)N1CCc2nc(C3CC3)ncc2C1 (single isomer, unassigned) [Example 64, 1,1,1,3,3,3-hexafluoropropan-2-yl (R or S)-1-(2-cyclopropyl-5,6,7,8-tetrahydropyrido[4,3-d]pyrimidine-6-carbonyl)-6-azaspiro[2.5]octane-6-carboxylate] | 0.103 |  |  |
| O=C(Nc1cncc(Cl)c1)C1CC12CCN(C(=O)OC(C(F)(F)F)C(F)(F)F)CC2 (single isomer, unassigned) [Example 67, 1,1,1,3,3,3-hexafluoropropan-2-yl (R or S)-1-((5-chloropyridin-3-yl)carbamoyl)-6-azaspiro[2.5]octane-6-carboxylate] | 0.0485 |  |  |
| Cc1ncccc1NC(=O)C1CC12CCN(C(=O)OC(C(F)(F)F)C(F)(F)F)CC2 (single isomer, unassigned) [Example 69, 1,1,1,3,3,3-hexafluoropropan-2-yl (R or S)-1-((2-methylpyridin-3-yl)carbamoyl)-6-azaspiro[2.5]octane-6-carboxylate] | 0.0136 |  |  |
| Cc1ncccc1NC(=O)C1CC12CCN(C(=O)OC(C(F)(F)F)C(F)(F)F)CC2 (single isomer, unassigned) [Example 70, 1,1,1,3,3,3-hexafluoropropan-2-yl (R or S)-1-((2-methylpyridin-3-yl)carbamoyl)-6-azaspiro[2.5]octane-6-carboxylate] | 0.985 |  |  |
| O=C(Nc1cccc(C(F)(F)F)n1)C1CC12CCN(C(=O)OC(C(F)(F)F)C(F)(F)F)CC2 (single isomer, unassigned) [Example 73, 1,1,1,3,3,3-hexafluoropropan-2-yl (R or S)-1-((6-(trifluoromethyl)pyridin-2-yl)carbamoyl)-6-azaspiro[2.5]octane-6-carboxylate] | 0.0003 |  |  |
| O=C(Nc1ccc(C(F)(F)F)nc1)C1CC12CCN(C(=O)OC(C(F)(F)F)C(F)(F)F)CC2 (single isomer, unassigned) [Example 79, 1,1,1,3,3,3-hexafluoropropan-2-yl (R or S)-1-((6-(trifluoromethyl)pyridin-3-yl)carbamoyl)-6-azaspiro[2.5]octane-6-carboxylate] | 0.851 |  |  |
| Cc1ccc(NC(=O)C2CC23CCN(C(=O)OC(C(F)(F)F)C(F)(F)F)CC3)cn1 (single isomer, unassigned) [Example 82, 1,1,1,3,3,3-hexafluoropropan-2-yl (R or S)-1-((6-methylpyridin-3-yl)carbamoyl)-6-azaspiro[2.5]octane-6-carboxylate] | 0.118 |  |  |
| O=C(NC1CCOCC1)[C@@H]1CC12CCN(C(=O)OC(C(F)(F)F)C(F)(F)F)CC2 [Example 9, 1,1,1,3,3,3-Hexafluoropropan-2-yl (R)-1-((tetrahydro-2H-pyran-4-yl)carbamoyl)-6-azaspiro[2.5]octane-6-carboxylate] |  |  | 0.727 |

More lines, in order of falling IC50 (MAGL [1]), values ahead:

| IC50 (MAGL [1]) [µM] | inhibition at 1 µM (MAGL [2]) [%] | IC50 (MAGL [2]) [µM] | Structure (SMILES) |
| --- | --- | --- | --- |
| 0.862 | 90 | 0.4 | O=C(OC(C(F)(F)F)C(F)(F)F)N1CCC2(CC1)CC2C(=O)N1CCn2c(nnc2C2CC2)C1 (racemic) [Example 185, 1,1,1,3,3,3-hexafluoropropan-2-yl (+)1-(3-cyclopropyl-5,6,7,8-tetrahydro-[1,2,4]triazolo[4,3-a]pyrazine-7-carbonyl)-6-azaspiro[2.5]octane-6-carboxylate] |
| 0.736 |  |  | O=C(Nc1cnc(C(F)(F)F)nc1)C1CC12CCN(C(=O)OC(C(F)(F)F)C(F)(F)F)CC2 (single isomer, unassigned) [Example 100, 1,1,1,3,3,3-hexafluoropropan-2-yl (R or S)-1-((2-(trifluoromethyl)pyrimidin-5-yl)carbamoyl)-6-azaspiro[2.5]octane-6-carboxylate] |
| 0.684 |  |  | O=C(OC(C(F)(F)F)C(F)(F)F)N1CCC2(CC1)CC2C(=O)N1CCc2ncncc2C1 (single isomer, unassigned) [Example 61, 1,1,1,3,3,3-hexafluoropropan-2-yl (R or S)-1-(5,6,7,8-tetrahydropyrido[4,3-d]pyrimidine-6-carbonyl)-6-azaspiro[2.5]octane-6-carboxylate] |
| 0.249 | 100 | 0.12 | CN(C(=O)C1CC12CCN(C(=O)OC(C(F)(F)F)C(F)(F)F)CC2)c1cccnn1 (racemic) [Example 188, 1,1,1,3,3,3-hexafluoropropan-2-yl (+)1-(methyl(pyridazin-3-yl)carbamoyl)-6-azaspiro[2.5]octane-6-carboxylate] |
| 0.148 | 100 |  | O=C(OC(C(F)(F)F)C(F)(F)F)N1CCC2(CC1)CC2C(=O)N1CCN(C2CC2)CC1 (racemic) [Example 34, 1,1,1,3,3,3-Hexafluoropropan-2-yl (±)1-(4-cyclopropylpiperazine-1-carbonyl)-6-azaspiro[2.5]octane-6-carboxylate] |
| 0.133 |  |  | CN(C(=O)C1CC12CCN(C(=O)OC(C(F)(F)F)C(F)(F)F)CC2)c1ccccn1 (single isomer, unassigned) [Example 46, 1,1,1,3,3,3-hexafluoropropan-2-yl (R or S)-1-(methyl(pyridin-2-yl)carbamoyl)-6-azaspiro[2.5]octane-6-carboxylate] |
| 0.102 | 100 |  | CN(C(=O)[C@H]1CC12CCN(C(=O)OC(C(F)(F)F)C(F)(F)F)CC2)c1cnccn1 (single isomer, unassigned) [Example 12] |
| 0.053 | 100 | 0.039 | O=C(Nc1ccnc(C(F)(F)F)n1)[C@@H]1CC12CCN(C(=O)OC(C(F)(F)F)C(F)(F)F)CC2 (single isomer, unassigned) [Example 18] |
| 0.028 |  |  | O=C(Nc1cnccn1)C1CC12CCN(C(=O)OC(C(F)(F)F)C(F)(F)F)CC2 (single isomer, unassigned) [Example 55, 1,1,1,3,3,3-hexafluoropropan-2-yl (R or S)-1-(pyrazin-2-ylcarbamoyl)-6-azaspiro[2.5]octane-6-carboxylate] |
| 0.00421 | 100 | 0.001 | O=C(Nc1ccnc(C(F)(F)F)n1)[C@H]1CC12CCN(C(=O)OC(C(F)(F)F)C(F)(F)F)CC2 (single isomer, unassigned) [Example 17] |
| 0.003 |  |  | O=C(Nc1ccccn1)C1CC12CCN(C(=O)OC(C(F)(F)F)C(F)(F)F)CC2 (single isomer, unassigned) [Example 49, 1,1,1,3,3,3-hexafluoropropan-2-yl (R or S)-1-(pyridin-2-ylcarbamoyl)-6-azaspiro[2.5]octane-6-carboxylate] |
